Data reported in ChEMBL document CHEMBL3596169, “Pyridine hydroxamic acids are specific anti-HCV agents affecting HDAC6” (Bioorg Med Chem Lett, 2015).
The source made the active and inactive calls. No cut-off for these calls is given here.

Tests used:
[1] = Cytotoxicity against human HuH7 cells transfected with luc/neo plasmid assessed as cell viability after 72 hrs by MTT method; assay type: cell-based, Huh-7
Hepatitis C virus = test: Antiviral activity against HCV infected in human Huh-luc/neo7 cells after 72 hrs by luciferase assay; assay type: functional, organism-based, Hepacivirus hominis
[2] = Selectivity index, ratio of CC50 for human HuH7 cells transfected with luc/neo plasmid to EC50 for HCV infected in human Huh-luc/neo7 cells; design: species or system Huh-7
[3] = target: T1, Protein deacetylase HDAC6 (Homo sapiens) (UniProt Q9UBN7); test: Inhibition of HDAC6 in human Huh-luc/neo7 cells assessed as alpha-tubulin acetylation at 20 to 100 uM by Western blotting analysis; assay type: cell-based
T1 sequence (whole entry): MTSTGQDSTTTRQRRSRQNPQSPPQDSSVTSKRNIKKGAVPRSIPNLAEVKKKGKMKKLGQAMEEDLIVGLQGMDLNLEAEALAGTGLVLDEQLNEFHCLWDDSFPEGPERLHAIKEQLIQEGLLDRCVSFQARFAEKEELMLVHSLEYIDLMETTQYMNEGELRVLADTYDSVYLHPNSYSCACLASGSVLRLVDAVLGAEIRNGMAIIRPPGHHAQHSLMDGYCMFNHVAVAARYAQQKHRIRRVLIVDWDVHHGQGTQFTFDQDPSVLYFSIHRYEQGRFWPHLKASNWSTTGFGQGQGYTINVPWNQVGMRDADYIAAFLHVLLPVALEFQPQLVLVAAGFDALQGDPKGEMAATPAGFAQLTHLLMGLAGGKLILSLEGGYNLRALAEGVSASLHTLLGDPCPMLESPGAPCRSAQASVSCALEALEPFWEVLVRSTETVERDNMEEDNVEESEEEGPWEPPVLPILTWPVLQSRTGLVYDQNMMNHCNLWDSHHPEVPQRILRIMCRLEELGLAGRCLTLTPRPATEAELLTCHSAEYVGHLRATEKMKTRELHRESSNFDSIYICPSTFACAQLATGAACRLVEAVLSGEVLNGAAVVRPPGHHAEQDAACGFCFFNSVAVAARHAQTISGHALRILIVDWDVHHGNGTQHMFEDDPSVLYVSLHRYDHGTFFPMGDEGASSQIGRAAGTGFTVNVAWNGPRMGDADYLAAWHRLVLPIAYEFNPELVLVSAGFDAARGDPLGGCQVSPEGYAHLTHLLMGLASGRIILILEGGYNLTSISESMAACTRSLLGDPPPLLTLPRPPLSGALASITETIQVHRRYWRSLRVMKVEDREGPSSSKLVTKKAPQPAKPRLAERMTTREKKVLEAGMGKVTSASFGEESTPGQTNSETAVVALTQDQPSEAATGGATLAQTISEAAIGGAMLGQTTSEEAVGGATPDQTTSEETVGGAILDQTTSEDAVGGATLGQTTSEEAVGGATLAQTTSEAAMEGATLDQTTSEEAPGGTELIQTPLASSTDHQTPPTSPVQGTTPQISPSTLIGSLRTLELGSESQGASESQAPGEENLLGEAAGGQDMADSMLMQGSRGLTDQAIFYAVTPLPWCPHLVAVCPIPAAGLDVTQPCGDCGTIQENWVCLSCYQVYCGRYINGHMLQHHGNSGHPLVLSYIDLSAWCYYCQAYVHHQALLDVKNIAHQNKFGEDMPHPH

[4] = target: T1, Protein deacetylase HDAC6 (Homo sapiens); test: Inhibition of HDAC6 in human Huh-luc/neo7 cells assessed as alpha-tubulin acetylation at 3 to 24 uM by Western blotting analysis; assay type: cell-based
[5] = target: T1, Protein deacetylase HDAC6 (Homo sapiens); test: Inhibition of HDAC6 in human Huh-luc/neo7 cells assessed as alpha-tubulin acetylation at 5 to 60 uM by Western blotting analysis; assay type: cell-based

SMILES	EC50 (Hepatitis C virus)	HDAC6 inhibition (active/not active) [3]	inhibition [4]	inhibition [5]	CC50 at 72 h [1]	Ratio CC50/EC50 [2]
CN(O)C(=O)c1cccc[n+]1[O-]	> 1000 µM				> 1000 µM	
CONC(=O)c1ccccn1	> 1000 µM				> 1000 µM	
O=C(NO)c1ccc(Cl)cc1			Active			
O=C(NO)c1cccc[n+]1[O-]	6 µM	inactive			900 µM	150
O=C(NO)c1ccccn1	30 µM	inactive			710 µM	24
Cn1cccc(C(=O)NO)c1=O	12 µM				> 1000 µM	>83
O=C(NO)c1cc[n+]([O-])cc1	17 µM	inactive			> 1000 µM	>59
CN(O)C(=O)c1ccccn1	240 µM				> 1000 µM	>4

More lines, main results first:

EC50 (Hepatitis C virus)	HDAC6 inhibition (active/not active) [3]	inhibition [4]	inhibition [5]	SMILES	CC50 at 72 h [1]	Ratio CC50/EC50 [2]
17 µM	Active			O=C(NO)c1ccncc1	210 µM	12
	Active			O=C(NO)c1ccccc1		
5 µM				COc1cccnc1C(=O)NO	880 µM	180
8 µM				O=C(NO)c1ncccc1Cl	800 µM	100
20 µM	Active			O=C(NO)c1ccc[n+]([O-])c1	> 1000 µM	>50
			Active	Cc1ccc(C(=O)NO)cc1		
25 µM	Active			O=C(NO)c1cccnc1 [NICOXAMAT]	450 µM	18
